According to PubChem BioAssay (NCI):
“And” between values parts separate entries of the source, which are not always exact repeats. Equal entries are not always repeated.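 Exposure lasted 48 hours, with cells grown in 96-well plates and compounds tested at five concentrations. Here, GI50 denotes the concentration required for 50% inhibition of growth. TGI is the concentration that stops growth completely.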

Key:
Assay in all cases: growth of human tumour cells (NCI), 48 h
[1] = system: HOP-92 NSCLC
[2] = system: MALME-3M melanoma
[3] = system: UO-31 renal
[4] = system: UACC-62 melanoma
[5] = system: SK-MEL-2 melanoma
[6] = system: KM12 colon
[7] = system: OVCAR-8 ovarian
[8] = system: NCI-H23 lung
[9] = system: COLO 205 colon
[10] = system: MCF7 breast

Cc1ccccc1-n1c(C)nc(-c2ccccc2)cc1=O
TGI [1]: > 100 µM
TGI [2]: > 100 µM
TGI [3]: > 100 µM
TGI [4]: > 100 µM
TGI [5]: > 100 µM
TGI [6]: > 100 µM
TGI [7]: > 100 µM
TGI [8]: > 100 µM
TGI [9]: > 100 µM

O=C(O)c1ccccc1NC(=O)C1CCCCC1
TGI [1]: > 100 µM
TGI [2]: > 100 µM
TGI [3]: > 100 µM
TGI [4]: > 100 µM
TGI [5]: > 100 µM
TGI [6]: > 100 µM
TGI [7]: > 100 µM
TGI [9]: > 100 µM

C[C@H]1C(=O)CC[C@]2(C)CCC(C(C)(C)O)CC12O (stereo partly drawn)
TGI [1]: > 100 µM
TGI [2]: > 100 µM
TGI [3]: > 100 µM
TGI [4]: > 100 µM
TGI [5]: > 100 µM
TGI [6]: > 100 µM
TGI [7]: > 100 µM
TGI [8]: > 100 µM
TGI [9]: > 100 µM

c1ccc2c(c1)C1=NCCN1c1ccccc1-2
TGI [1]: 21.7 µM
TGI [2]: 6.77 µM
TGI [3]: 18.4 µM
TGI [4]: 13 µM
TGI [5]: 8.05 µM
TGI [6]: 14.6 µM
TGI [7]: 11.5 µM
TGI [8]: 6.65 µM
TGI [9]: 2.77 µM

O=S(=O)(C/C(=N\O)c1ccccc1)c1ccccc1
TGI [1]: > 100 µM
TGI [2]: > 100 µM
TGI [3]: > 100 µM
TGI [4]: > 100 µM
TGI [5]: > 100 µM
TGI [6]: > 100 µM
TGI [7]: > 100 µM
TGI [8]: > 100 µM
TGI [9]: > 100 µM

Nc1n[nH]c(CCc2nc(N)n[nH]2)n1
TGI [1]: > 100 µM
TGI [2]: > 100 µM
TGI [3]: > 100 µM
TGI [4]: > 100 µM
TGI [5]: > 100 µM
TGI [6]: > 100 µM
TGI [7]: > 100 µM
TGI [8]: > 100 µM
TGI [9]: > 100 µM

COC1=C2CC(C)CC(OC)C(O)C(C)/C=C(\C)C(OC(N)=O)C(OC)/C=C\C=C(/C)C(=O)NC(=C(/C=N/N3CCCCC3)C1=O)C2=O (stereo not drawn)
TGI [1]: 35.4 µM
TGI [2]: 28.7 µM
TGI [3]: 23.4 µM
TGI [4]: 48.1 µM
TGI [5]: 32.5 µM
TGI [6]: 25.1 µM
TGI [7]: 16.6 µM
TGI [8]: 35.3 µM
TGI [9]: 8.25 µM

Cc1cc2c(C)n(Cc3ccc(Cl)cc3Cl)nc2c(C(=O)O)c1C
TGI [1]: > 100 µM
TGI [2]: > 100 µM
TGI [3]: > 100 µM
TGI [4]: > 100 µM
TGI [5]: > 100 µM
TGI [7]: > 100 µM
TGI [8]: > 100 µM
TGI [9]: > 100 µM

CC1=CC(=O)N(c2c(C)cccc2Cl)C(C)N1 (stereo not drawn)
TGI [1]: > 100 µM
TGI [2]: > 100 µM
TGI [3]: > 100 µM
TGI [4]: > 100 µM
TGI [5]: > 100 µM
TGI [6]: > 100 µM
TGI [7]: > 100 µM
TGI [8]: > 100 µM
TGI [9]: > 100 µM

O=C1C=CC(CC(=O)c2ccc3ccccc3c2)O1 (stereo not drawn)
TGI [1]: 47 µM
TGI [2]: > 100 µM
TGI [3]: 39.2 µM
TGI [4]: 34.6 µM
TGI [5]: 47.5 µM
TGI [6]: 31.4 µM
TGI [7]: 32.8 µM
TGI [8]: 46.7 µM
TGI [9]: 31.9 µM

COC(=O)C1=CC2OC1(C)CCC2=O (stereo not drawn)
TGI [2]: > 100 µM
TGI [3]: > 100 µM
TGI [5]: > 100 µM
TGI [6]: > 100 µM
TGI [7]: > 100 µM
TGI [8]: > 100 µM
TGI [9]: > 100 µM

COc1ccc2c(c1OC)C(=O)c1cnccc1C2=O
TGI [1]: > 100 µM
TGI [2]: > 100 µM
TGI [3]: > 100 µM
TGI [4]: > 100 µM
TGI [5]: > 100 µM
TGI [6]: > 100 µM
TGI [7]: > 100 µM
TGI [8]: > 100 µM
TGI [9]: > 100 µM

CCCCCCC(/C=N/O)C(C)(O)CCC (stereo not drawn)
TGI [2]: > 100 µM
TGI [3]: > 100 µM
TGI [4]: > 100 µM
TGI [5]: > 100 µM
TGI [6]: > 100 µM
TGI [7]: > 100 µM
TGI [8]: > 100 µM
TGI [9]: > 100 µM

O=C1CC(c2ccc(Cl)cc2)Oc2ccccc21 (stereo not drawn)
TGI [1]: 56.5 µM
TGI [10]: 13.6 µM
TGI [3]: > 100 µM
TGI [4]: 49.8 µM
TGI [5]: 37.8 µM
TGI [6]: 31.5 µM
TGI [7]: > 100 µM
TGI [8]: 40.2 µM
TGI [9]: 89.1 µM

O=C1c2nc3n(c2C(=O)c2c1nc1n2CCC1)CCC3
TGI [1]: 26.3 µM
GI50 [2]: 2 µM
TGI [2]: 3.54 µM and 2.17 µM
TGI [3]: 37.4 µM
GI50 [4]: 2.21 µM
TGI [4]: 5.5 µM and 3.65 µM
GI50 [5]: 4.39 µM
TGI [5]: 13.5 µM
GI50 [6]: 5.63 µM
TGI [6]: 17 µM
GI50 [7]: 7.87 µM
TGI [7]: 22.5 µM
GI50 [8]: 3.08 µM
TGI [8]: 7.09 µM
GI50 [9]: 4.13 µM
TGI [9]: 18.5 µM

O=[N+]([O-])c1ccc(Cl)cc1C1SCc2nc3ccccc3n21 (stereo not drawn)
TGI [2]: > 100 µM
TGI [3]: > 100 µM
TGI [4]: > 100 µM
TGI [5]: > 100 µM
TGI [6]: > 100 µM
TGI [7]: > 100 µM
TGI [8]: > 100 µM
TGI [9]: > 100 µM

O=C(NO)c1ccc(O)c(O)c1
TGI [1]: > 100 µM
TGI [2]: > 100 µM
TGI [3]: > 100 µM
TGI [4]: > 100 µM
TGI [6]: > 100 µM
TGI [7]: > 100 µM
TGI [8]: > 100 µM
TGI [9]: > 100 µM

O=C(O)C1=C(C(=O)Nc2ccc(NC(=O)C3=C(C(=O)O)C4C=CC3C4)cc2)C2C=CC1C2
TGI [1]: > 100 µM
TGI [2]: > 100 µM
TGI [3]: > 100 µM
TGI [4]: > 100 µM
TGI [5]: > 100 µM
TGI [6]: > 100 µM
TGI [7]: > 100 µM
TGI [8]: > 100 µM
TGI [9]: > 100 µM

COC(=O)C1=C(c2ccc3c(c2)OCO3)OC(c2cc(OC)c(OC)c(OC)c2)C1 (stereo not drawn)
TGI [1]: > 100 µM
TGI [2]: > 100 µM
TGI [3]: > 100 µM
TGI [4]: 19.2 µM
TGI [7]: 92.4 µM
TGI [8]: > 100 µM
TGI [9]: 3.98 µM

COC1OC2COC(c3ccccc3)OC2C(O)C1Br (stereo not drawn)
TGI [1]: > 100 µM
TGI [2]: > 100 µM
TGI [4]: > 100 µM
TGI [6]: > 100 µM
TGI [7]: > 100 µM
TGI [8]: > 100 µM
TGI [9]: > 100 µM

O=C(Nc1ccn(CCI)c(=O)n1)c1ccccc1
TGI [1]: > 100 µM
TGI [2]: > 100 µM
TGI [3]: > 100 µM
TGI [4]: > 100 µM
TGI [5]: > 100 µM
TGI [6]: > 100 µM
TGI [7]: > 100 µM
TGI [9]: > 100 µM

COc1ccc(Nc2cc(C)nc(N3CCN(c4ccnc5cc(Cl)ccc45)CC3)n2)cc1
GI50 [1]: 1.04 µM
TGI [1]: 5.59 µM
GI50 [2]: 3.17 µM
TGI [2]: > 100 µM
GI50 [10]: 0.284 µM
TGI [10]: 4.51 µM
GI50 [3]: 2.24 µM
TGI [3]: > 100 µM
GI50 [4]: 1.71 µM
TGI [4]: 5.93 µM
GI50 [6]: 1.64 µM
TGI [6]: 31.6 µM
GI50 [7]: 3.25 µM
TGI [7]: > 100 µM
GI50 [8]: 3.82 µM
TGI [8]: > 100 µM
GI50 [9]: 1.96 µM
TGI [9]: 3.96 µM

CCC(Oc1ccc(OC)c2ccccc(=O)c12)C(=O)O (stereo not drawn)
TGI [2]: > 100 µM
TGI [3]: > 100 µM
TGI [4]: > 100 µM
TGI [5]: > 100 µM
TGI [6]: > 100 µM
TGI [7]: > 100 µM
TGI [8]: > 100 µM
TGI [9]: > 100 µM

O=C(Nc1ccc(Cl)c(Cl)c1)OCCN1c2ccccc2Sc2ccccc21
TGI [1]: > 10 µM
TGI [2]: > 10 µM
TGI [10]: > 10 µM
TGI [4]: > 10 µM
TGI [6]: > 10 µM
TGI [7]: > 10 µM
TGI [8]: > 10 µM
TGI [9]: > 10 µM
